Legend:
HT29 cells [1] = experiment: HT29 cell necroptosis assay (TNF-α/Smac mimetic/z-VAD induced necrosis, viability); assay type: cell-based, human; conditions: 10 μM test compound pretreated one hour, TNF-α (40 ng/mL), Smacmimetic (100 nM), z-VAD (20 μM) for 48 hours
Method: Biological in Vitro HT29 Cell Assay.
(§1) The efficacies of RIP1 inhibitors were tested in vitro using human colon cancer TH29 cells in a necroptosis assay. For the assay, Cells were added to 96-well plates and then 10 μM of the test compound was pretreated for one hour. Then the cells were treated with TNF-α (40 ng/mL), Smacmimetic (100 nM) and z-VAD (20 μM) for 48 hours, and the viability was quantified. DMSO pretreatment group was negative control, Nec-1 pretreatment group was positive control.

L929 cells = experiment: L929 cell necroptosis assay (same protocol as the HT29 cell assay); assay type: cell-based, mouse; conditions: for L929 Inhibition (10 μM): 10 μM test compound, protocol as HT29 assay; for IC50: Mus musculus
Method: as §1, with “For the assay, Cells were added to 96-well plates and then 10 μM of the test compound was pretreated for one hour.” left out
Biological In Vitro L929 Cell Assay.
Mouse L-cells NCTC 929 (L929) were acquired from ATCC (cat. no. ATCC CCL-1) and banked in liquid nitrogen. The assay protocol was the same as described for the HT29 cell assay.

HT29 cells [2] = experiment: HT29 cell necroptosis assay (TNF-α/Smac mimetic/z-VAD induced necrosis, viability); assay type: cell-based, human; conditions: TNF-α/Smacmimetic/z-VAD induced necrosis
[3] = Homo sapiens, HT-29, HT29 cells, values in nM
[4] = Homo sapiens, HT-29, HT29 cells, values given in μM

Compound	HT29 Inhibition (10 μM) (HT29 cells [1]) [%]	L929 Inhibition (10 μM) (L929 cells) [%]	IC50 (HT29 cells [2]; [3]) [nM]	other results
CC(=O)Nc1nc2ccc(-c3cnc(Cl)c(NC(=O)Cc4ccccc4Cl)c3)cc2s1 [Compound A24]	113	42	527	
CC(=O)Nc1nc2cc(-c3cnc(C)c(NC(=O)OC4CCCCC4)c3)ccn2n1 [Compound A58]				IC50 (L929 cells; values given in μM): 1 µM; IC50 (HT29 cells [2]; [4]): 1000 nM
CC(=O)Nc1nc2ccc(-c3cncc(NC(=O)Cc4ccccc4Cl)c3)cc2s1 [Compound A13]	80	94		IC50 (HT29 cells [2]; [4]): 5240 nM
CCc1ncc(-c2ccc3nc(NC(C)=O)sc3c2)cc1NC(=O)OC1CCCCC1 [Compound A54]			75	IC50 (L929 cells; values in nM): 0.2 µM
CC(=O)Nc1nc2ccc(-c3cnc(Cl)c(NC(=O)Cc4ccc(OCCOCCNC(=O)OC(C)(C)C)cc4)c3)cc2s1 [Compound A26]	30	42		
Nc1nc2ccc(-c3cnc(Cl)c(NC(=O)c4cccc(F)c4)c3)cc2s1 [Compound A1]	112	48		
CC(=O)Nc1nc2ccc(-c3ccnc(NC(=O)Cc4ccccc4Cl)c3)cc2s1 [Compound A30]	38	45		
CC(=O)Nc1nc2ccc(-c3cncc(NC(=O)Cc4cccc(Cl)c4)c3)cc2s1 [Compound A14]	71	95		
CC(=O)Nc1nc2ccc(-c3cnc(C)c(NC(=O)OC4CCCCC4)c3)cc2s1 [Compound A36, Cyclohexyl (5-(2-acetamidobenzo[d]thiazol-6-yl)-2-methylpyridin-3-yl)carbamate]			30	IC50 (L929 cells; values in nM): 0.005 µM
CC(=O)Nc1nc2ccc(-c3cncc(NC(=O)Cc4ccccc4F)c3)cc2s1 [Compound A16]	36	86		
CC(=O)Nc1nc2ccc(-c3cnc(Cl)c(NC(=O)c4cccnc4)c3)cc2s1 [Compound A3]	7	1		
CC(=O)Nc1cn2cc(-c3cnc(C)c(NC(=O)CC4CCCCC4)c3)ccc2n1 [Compound A46]			900	IC50 (L929 cells; values given in μM): 2.48 µM
CC(=O)Nc1nc2ccc(-c3cnc(Cl)c(NC(=O)c4ccncc4)c3)cc2s1 [Compound A4]	25	1		
CC(=O)Nc1nc2ccc(-c3cncc(NC(=O)Cc4ccccc4)c3)cc2s1 [Compound A12]	11	80		IC50 (HT29 cells [2]; [4]): 2560 nM
CC(=O)Nc1nc2ccc(-c3cnc(Cl)c(NC(=O)Cc4ccccc4)c3)cc2s1 [Compound A21]	28	42		IC50 (HT29 cells [2]; [4]): 16500 nM
CC(=O)Nc1nc2ccc(-c3cc(NC(=O)Cc4ccccc4Cl)ccn3)cc2s1 [Compound A29]	81	45		
CNC(=O)Nc1nc2ccc(-c3cnc(C)c(NC(=O)OC4CCCCC4)c3)cc2s1 [Compound A94]			10	
CC(=O)Nc1ccc2cc(-c3cnc(C)c(NC(=O)OC4CCCCC4)c3)ccc2n1 [Compound A99]			441	
CC(=O)Nc1cn2cc(-c3cnc(C)c(NC(=O)OC4CCCCC4)c3)ccc2n1 [Compound A50, Cyclohexyl (5-(2-acetamidoimidazo[1,2-a]pyridin-6-yl)-2-methylpyridin-3-yl)carbamate]			97	
CC(=O)Nc1nc2ccc(-c3cnc(C)c(NC(=O)CN4CCCCC4)c3)cc2s1 [Compound A40]	79			IC50 (HT29 cells [2]; [4]): 1100 nM
CC(=O)Nc1nc2ccc(-c3cnc(C)c(NC(=O)OC4CCCCCC4)c3)cc2s1 [Compound A87]			9	
CC(=O)Nc1nc2ccc(-c3cccc(NC(=O)Cc4ccccc4)c3)cc2s1 [Compound A20]	11	69		
CC(=O)Nc1nc2ccc(-c3cnc(C)c(NC(=O)NC4CCCCC4)c3)cc2s1 [Compound A49]			357	
CC(=O)Nc1nc2cnc(-c3cnc(C)c(NC(=O)OC4CCCCC4)c3)cc2s1 [Compound A64]				IC50 (HT29 cells [2]; [4]): 1000 nM
CC(=O)Nc1nc2ccc(-c3cnc(C)c(NC(=O)O[C@H]4CC[C@@H](O)CC4)c3)cc2s1 [Compound A80]			653	
CCC(CC)OC(=O)Nc1cc(-c2ccc3nc(NC(C)=O)sc3c2)cnc1C [Compound A89]			51	
CC(=O)Nc1nc2ccc(-c3cnc(C)c(NC(=O)CC(C)(C)C)c3)cc2s1 [Compound A45]			430	IC50 (L929 cells; values given in μM): 1.01 µM

Compound	HT29 Inhibition (10 μM) (HT29 cells [1]) [%]	L929 Inhibition (10 μM) (L929 cells) [%]	IC50 (HT29 cells [2]; [3]) [nM]	other results
CC(=O)Nc1nc2ccc(-c3cnc(Cl)c(NC(=O)Cc4ccc(OCCOCCNC(=O)CCCCCNC(=O)CCCC[C@@H]5SC[C@@H]6NC(=O)N[C@@H]65)cc4)c3)cc2s1 [Compound A27]	48	42		
CC(=O)Nc1nc2ccc(-c3cnc(C)c(NC(=O)OC(C)(C)C)c3)cc2s1 [Compound A48]			500	
CC(=O)Nc1nc2ccc(-c3cccc(NC(=O)Cc4ccccc4Cl)c3)cc2s1 [Compound A28]	34	45		
CC(=O)Nc1nc2ccc(-c3cnc(F)c(NC(=O)OC4CCCCC4)c3)cc2s1 [Compound A84]				IC50 (HT29 cells [2]; HT29 cells, values in nM): 31 nM
Cc1ncc(-c2ccc3nc(NC(=O)C4CC4)sc3c2)cc1NC(=O)OC1CCOCC1 [Compound A71]			12	
COc1ncc(-c2ccc3nc(NC(C)=O)sc3c2)cc1NC(=O)Cc1ccccc1 [Compound A22]	66	42		
CC(=O)Nc1nc2ccc(-c3cnc(Cl)c(NC(=O)OC4CCCCC4)c3)cc2s1 [Compound A83]			45	
CC(=O)Nc1nc2ccc(-c3cnc(C)c(NC(=O)CC(C)C)c3)cc2s1 [Compound A44]	47			IC50 (HT29 cells [2]; [4]): 2690 nM
CC(=O)Nc1nc2ccc(-c3cnc(C)c(NC(=O)OC4CCC4)c3)cc2s1 [Compound A92]			121	
CC(=O)Nc1nc2ccc(-c3cnc(C)c(NC(=O)OC(C)C4CC4)c3)cc2s1 (centres unmarked) [Compound A88]			40	
Cc1ncc(-c2ccc3nc(NC(=O)c4ccccc4)sc3c2)cc1NC(=O)OC1CCCCC1 [Compound A104]			60	
CC(=O)Nc1nc2ccc(-c3cnc(C)c(NC(=O)OC4CCCC4)c3)cc2s1 [Compound A47]			124	
CC(=O)Nc1nc2ccc(-c3cncc(NC(=O)Cc4ccc(Cl)cc4)c3)cc2s1 [Compound A15]	95	87		
CC(=O)Nc1nc2ccc(-c3cnc(C)c(NC(=O)OC4CCC(=O)CC4)c3)cc2s1 [Compound A78]			867	
CC(=O)Nc1nc2ccc(-c3cc(NC(=O)OC4CCCCC4)c(C)cn3)cc2s1 [Compound A51]			73	
Cc1ncc(-c2ccc3nc(NC(=O)C4CC4)sc3c2)cc1NC(=O)OC1CCCCC1 [Compound A61]			1.2	IC50 (L929 cells; values in nM): 0.003 µM
Cc1ncc(-c2ccc3nc(NC(=O)CCCCCNC(=O)OC(C)(C)C)sc3c2)cc1NC(=O)Cc1ccccc1 [Compound A31]	87			IC50 (HT29 cells [2]; [4]): 3400 nM
CC(=O)Nc1nc2ccc(-c3cnc(C)c(NC(=O)CC4CCCCC4)c3)cc2s1 [Compound A25]	68		255	
CC(=O)Nc1nc2ccc(-c3cnc(C)c(NC(=O)OC4CCCCC4)c3)nc2s1 [Compound A57]			92	IC50 (L929 cells; values in nM): 0.03 µM
CC(=O)Nc1nc2ccc(-c3cnc(C)c(NC(=O)CC4CCCC4)c3)cc2s1 [Compound A43]	78		431	
CC(=O)Nc1nc2ccc(-c3cc(NC(=O)Cc4ccccc4)ccn3)cc2s1 [Compound A19]	1	22		
CC(=O)Nc1nc2ccc(-c3ccc(C)c(NC(=O)OC4CCCCC4)n3)cc2s1 [Compound A56, Cyclohexyl (6-(2-acetamidobenzo[d]thiazol-6-yl)-3-methylpyridin-2-yl) Carbamate]			700	IC50 (L929 cells; values in nM): 0.5 µM
CC(=O)Nc1nc2ccc(-c3cncc(NC(=O)Cc4ccc(F)cc4)c3)cc2s1 [Compound A18]	24	51		
CC(=O)Nc1nc2ccc(-c3cnc(C)c(NC(=O)Cc4ccccc4)c3)cc2s1 [Compound A23]	104	42	670	
Cc1ncc(-c2ccc3nc(NC(=O)C4CC4)cn3n2)cc1NC(=O)OC1CCCCC1 [Compound A67]			31	
CC(=O)Nc1nc2ccc(-c3cncc(NC(=O)c4cccc(F)c4)c3)cc2s1 [Compound A5]	50	90		

— patent US10815226B2, “Heteroaryl compounds as inhibitors of necrosis, composition and application thereof” (ACCRO BIOSCIENCE INC., priority 2016, dated 2020)
